Here are results for three molecules from ChEMBL document CHEMBL5715954, “Silencing c-Myc translation as a therapeutic strategy through targeting PI3Kδ and CK1ε in hematological malignancies” (Blood, 2017).

Holding throughout (design): scale not given: the % may be the effect or the level left
Experiment [1] addresses Receptor-interacting serine/threonine-protein kinase 2 (Homo sapiens) (UniProt O43353). Put plainly: Inhibition of human RIPK2 assessed as enzyme activity at 1 uM using myelin basic protein as substrate preincubated for 20 mins followed by [gamma-33P]-ATP addition and measured after 120 mins by radiometric Hot-SpotSM Kinase assay relative to control.
The target in experiment [2] is T1, Serine/threonine-protein kinase ICK (Homo sapiens) (UniProt Q9UPZ9).
T1 sequence (whole entry): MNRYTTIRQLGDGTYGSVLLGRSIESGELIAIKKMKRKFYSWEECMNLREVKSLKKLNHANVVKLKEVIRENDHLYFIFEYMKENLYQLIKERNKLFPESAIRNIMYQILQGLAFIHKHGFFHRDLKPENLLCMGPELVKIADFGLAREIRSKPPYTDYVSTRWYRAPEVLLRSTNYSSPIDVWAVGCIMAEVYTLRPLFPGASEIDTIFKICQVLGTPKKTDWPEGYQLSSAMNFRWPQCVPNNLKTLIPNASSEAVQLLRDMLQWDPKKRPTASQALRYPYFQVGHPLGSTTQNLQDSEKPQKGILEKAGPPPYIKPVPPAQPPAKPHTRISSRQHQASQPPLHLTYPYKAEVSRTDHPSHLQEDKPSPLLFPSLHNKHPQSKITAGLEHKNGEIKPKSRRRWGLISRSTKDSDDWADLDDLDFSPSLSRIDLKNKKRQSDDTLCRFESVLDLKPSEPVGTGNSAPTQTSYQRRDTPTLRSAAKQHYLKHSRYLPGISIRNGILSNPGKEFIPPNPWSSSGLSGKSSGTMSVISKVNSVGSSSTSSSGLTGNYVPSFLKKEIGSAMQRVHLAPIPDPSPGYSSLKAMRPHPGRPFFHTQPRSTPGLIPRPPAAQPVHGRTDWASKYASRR
The experiment in a line: Inhibition of human LCK2 assessed as enzyme activity at 1 uM using myelin basic protein as substrate preincubated for 20 mins followed by [gamma-33P]-ATP addition and measured after 120 mins by radiometric Hot-SpotSM Kinase assay relative to control.

Experiment [3] has as its target T2, Calcium/calmodulin-dependent protein kinase type IV (Homo sapiens) (UniProt Q16566).
T2 sequence (whole entry): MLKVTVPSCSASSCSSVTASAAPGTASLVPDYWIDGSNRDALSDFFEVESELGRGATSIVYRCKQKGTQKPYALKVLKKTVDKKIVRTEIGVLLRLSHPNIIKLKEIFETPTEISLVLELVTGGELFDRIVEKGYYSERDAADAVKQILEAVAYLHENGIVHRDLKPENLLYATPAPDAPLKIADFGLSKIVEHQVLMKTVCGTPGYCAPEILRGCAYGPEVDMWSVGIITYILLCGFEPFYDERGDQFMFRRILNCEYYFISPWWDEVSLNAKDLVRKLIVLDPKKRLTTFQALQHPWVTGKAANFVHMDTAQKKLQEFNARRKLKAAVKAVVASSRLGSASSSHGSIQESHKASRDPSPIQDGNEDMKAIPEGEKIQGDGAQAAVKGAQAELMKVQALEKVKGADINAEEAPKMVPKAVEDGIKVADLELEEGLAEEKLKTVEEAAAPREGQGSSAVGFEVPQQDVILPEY
Put plainly: Inhibition of human CAMK4 assessed as enzyme activity at 1 uM using KKLNRTLSFAEPG as substrate preincubated for 20 mins followed by [gamma-33P]-ATP addition and measured after 120 mins by radiometric Hot-SpotSM Kinase assay relative to control.

For experiment [4], the target named is Serine/threonine-protein kinase SIK3 (Homo sapiens) (UniProt Q9Y2K2). Put plainly: Inhibition of human SIK3 assessed as enzyme activity at 1 uM using AMARAASAAALARRR as substrate preincubated for 20 mins followed by [gamma-33P]-ATP addition and measured after 120 mins by radiometric Hot-SpotSM Kinase assay relative to control.
Experiment [5] has as its target Tyrosine-protein kinase Lyn (Homo sapiens) (UniProt P07948). The experiment in a line: Inhibition of human LYN B assessed as enzyme activity at 1 uM using poly[Glu:Tyr] (4:1) as substrate preincubated for 20 mins followed by [gamma-33P]-ATP addition and measured after 120 mins by radiometric Hot-SpotSM Kinase assay relative to control.
Experiment [6] has as its target T3, Ephrin type-B receptor 1 (Homo sapiens) (UniProt P54762).
T3 sequence (whole entry): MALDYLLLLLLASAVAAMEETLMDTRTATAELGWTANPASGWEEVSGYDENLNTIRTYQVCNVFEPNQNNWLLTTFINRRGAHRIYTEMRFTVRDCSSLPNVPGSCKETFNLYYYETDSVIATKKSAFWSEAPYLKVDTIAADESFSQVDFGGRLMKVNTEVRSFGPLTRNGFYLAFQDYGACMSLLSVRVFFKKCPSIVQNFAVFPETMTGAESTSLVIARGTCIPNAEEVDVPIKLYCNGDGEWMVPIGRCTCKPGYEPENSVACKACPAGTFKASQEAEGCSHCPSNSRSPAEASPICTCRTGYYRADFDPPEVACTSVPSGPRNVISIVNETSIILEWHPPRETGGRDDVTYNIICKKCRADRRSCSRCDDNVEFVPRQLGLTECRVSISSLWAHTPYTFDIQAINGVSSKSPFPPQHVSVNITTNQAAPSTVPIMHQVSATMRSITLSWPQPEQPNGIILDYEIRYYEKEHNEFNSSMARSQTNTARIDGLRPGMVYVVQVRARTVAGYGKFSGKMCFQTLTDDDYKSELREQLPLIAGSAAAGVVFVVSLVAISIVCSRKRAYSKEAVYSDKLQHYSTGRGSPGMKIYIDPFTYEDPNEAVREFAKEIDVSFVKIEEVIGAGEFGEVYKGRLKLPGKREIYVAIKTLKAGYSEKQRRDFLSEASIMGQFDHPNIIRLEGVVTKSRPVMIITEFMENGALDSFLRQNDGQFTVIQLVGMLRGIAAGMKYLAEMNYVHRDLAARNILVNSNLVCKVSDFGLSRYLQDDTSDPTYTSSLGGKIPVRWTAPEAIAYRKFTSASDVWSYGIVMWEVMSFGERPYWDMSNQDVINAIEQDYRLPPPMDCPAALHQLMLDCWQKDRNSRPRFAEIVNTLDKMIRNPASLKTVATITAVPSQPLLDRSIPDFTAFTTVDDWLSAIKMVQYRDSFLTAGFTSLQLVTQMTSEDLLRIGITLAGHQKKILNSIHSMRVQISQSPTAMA
Put plainly: Inhibition of human EPHB1 assessed as enzyme activity at 1 uM using poly[Glu:Tyr] (4:1) as substrate preincubated for 20 mins followed by [gamma-33P]-ATP addition and measured after 120 mins by radiometric Hot-SpotSM Kinase assay relative to control.

In experiment [7] the target is Insulin receptor (Homo sapiens) (UniProt P06213). The experiment in a line: Inhibition of human IR assessed as enzyme activity at 1 uM using poly[Glu:Tyr] (4:1) as substrate preincubated for 20 mins followed by [gamma-33P]-ATP addition and measured after 120 mins by radiometric Hot-SpotSM Kinase assay relative to control.
Insulin receptor (Homo sapiens), sequence (P06213 28-758 limits assumed): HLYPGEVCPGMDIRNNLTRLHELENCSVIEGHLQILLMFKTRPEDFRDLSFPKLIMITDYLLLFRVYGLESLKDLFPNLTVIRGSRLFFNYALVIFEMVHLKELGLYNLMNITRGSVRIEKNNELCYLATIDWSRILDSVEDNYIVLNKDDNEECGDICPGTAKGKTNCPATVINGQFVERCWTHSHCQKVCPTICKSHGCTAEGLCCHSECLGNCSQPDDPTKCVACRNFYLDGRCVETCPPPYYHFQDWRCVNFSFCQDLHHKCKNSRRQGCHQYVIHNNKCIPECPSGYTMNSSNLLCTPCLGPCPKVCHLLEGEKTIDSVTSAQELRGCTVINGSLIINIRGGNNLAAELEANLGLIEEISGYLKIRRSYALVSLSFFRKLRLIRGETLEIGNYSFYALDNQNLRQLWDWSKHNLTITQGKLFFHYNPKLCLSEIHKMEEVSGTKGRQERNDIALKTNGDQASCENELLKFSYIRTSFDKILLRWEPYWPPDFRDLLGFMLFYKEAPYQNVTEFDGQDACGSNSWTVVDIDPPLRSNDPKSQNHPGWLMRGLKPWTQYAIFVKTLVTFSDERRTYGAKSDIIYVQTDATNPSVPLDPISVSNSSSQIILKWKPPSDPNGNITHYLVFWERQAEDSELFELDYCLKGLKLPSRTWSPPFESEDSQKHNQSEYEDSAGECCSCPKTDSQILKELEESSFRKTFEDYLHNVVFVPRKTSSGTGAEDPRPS
Insulin receptor (Homo sapiens), sequence (P06213 763-1382 limits assumed): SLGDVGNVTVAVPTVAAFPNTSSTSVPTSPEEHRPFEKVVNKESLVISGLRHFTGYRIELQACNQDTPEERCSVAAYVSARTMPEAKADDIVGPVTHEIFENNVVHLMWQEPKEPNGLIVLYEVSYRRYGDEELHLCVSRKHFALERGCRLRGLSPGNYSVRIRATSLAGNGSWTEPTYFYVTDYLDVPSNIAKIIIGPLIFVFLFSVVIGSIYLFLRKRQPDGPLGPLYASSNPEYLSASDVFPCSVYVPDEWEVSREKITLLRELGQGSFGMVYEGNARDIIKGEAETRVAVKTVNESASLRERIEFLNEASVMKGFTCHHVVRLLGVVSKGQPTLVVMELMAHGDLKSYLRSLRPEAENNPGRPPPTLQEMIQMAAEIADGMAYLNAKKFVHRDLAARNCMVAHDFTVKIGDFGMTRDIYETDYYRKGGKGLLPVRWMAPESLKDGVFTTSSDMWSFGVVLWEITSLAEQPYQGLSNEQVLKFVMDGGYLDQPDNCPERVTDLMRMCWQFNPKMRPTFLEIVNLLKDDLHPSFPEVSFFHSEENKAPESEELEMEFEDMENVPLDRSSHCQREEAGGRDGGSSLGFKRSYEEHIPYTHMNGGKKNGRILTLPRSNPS

Serine/threonine-protein kinase SIK3 (Homo sapiens), sequence (Q9Y2K2 whole entry, looked up): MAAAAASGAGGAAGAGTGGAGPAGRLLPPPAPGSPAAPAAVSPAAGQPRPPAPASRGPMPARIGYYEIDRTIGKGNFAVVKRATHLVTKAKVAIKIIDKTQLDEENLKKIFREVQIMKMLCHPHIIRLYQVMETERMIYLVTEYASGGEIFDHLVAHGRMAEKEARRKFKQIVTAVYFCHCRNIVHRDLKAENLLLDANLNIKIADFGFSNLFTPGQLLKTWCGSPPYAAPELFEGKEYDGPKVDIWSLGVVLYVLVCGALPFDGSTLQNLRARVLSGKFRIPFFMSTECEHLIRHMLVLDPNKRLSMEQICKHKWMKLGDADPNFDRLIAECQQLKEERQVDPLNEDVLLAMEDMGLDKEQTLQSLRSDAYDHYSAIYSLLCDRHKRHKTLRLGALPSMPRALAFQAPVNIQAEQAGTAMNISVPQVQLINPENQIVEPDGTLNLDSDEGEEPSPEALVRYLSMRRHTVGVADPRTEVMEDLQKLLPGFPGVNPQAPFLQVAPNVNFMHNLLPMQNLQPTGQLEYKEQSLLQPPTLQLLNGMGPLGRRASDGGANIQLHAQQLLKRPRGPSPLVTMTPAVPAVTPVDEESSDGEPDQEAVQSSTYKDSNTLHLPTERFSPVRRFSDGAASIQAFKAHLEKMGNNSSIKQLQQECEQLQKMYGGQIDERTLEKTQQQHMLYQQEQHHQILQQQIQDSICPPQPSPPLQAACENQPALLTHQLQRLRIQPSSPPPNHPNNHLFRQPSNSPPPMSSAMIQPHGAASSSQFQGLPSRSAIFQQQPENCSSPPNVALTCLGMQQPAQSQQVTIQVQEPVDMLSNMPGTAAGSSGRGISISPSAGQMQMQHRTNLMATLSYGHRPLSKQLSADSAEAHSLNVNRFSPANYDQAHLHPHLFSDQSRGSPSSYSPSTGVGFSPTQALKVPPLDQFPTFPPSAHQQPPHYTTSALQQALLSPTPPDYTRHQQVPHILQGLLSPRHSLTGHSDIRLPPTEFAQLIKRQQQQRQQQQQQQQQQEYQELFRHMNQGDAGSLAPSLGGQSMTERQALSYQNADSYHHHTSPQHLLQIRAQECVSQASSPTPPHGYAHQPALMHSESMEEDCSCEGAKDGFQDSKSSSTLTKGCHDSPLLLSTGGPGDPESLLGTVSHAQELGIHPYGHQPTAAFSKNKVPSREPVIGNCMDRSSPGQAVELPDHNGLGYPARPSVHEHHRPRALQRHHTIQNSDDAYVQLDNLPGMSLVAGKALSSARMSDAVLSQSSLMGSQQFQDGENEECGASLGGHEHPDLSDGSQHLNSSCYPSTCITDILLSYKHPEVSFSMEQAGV
Receptor-interacting serine/threonine-protein kinase 2 (Homo sapiens), sequence (O43353 whole entry): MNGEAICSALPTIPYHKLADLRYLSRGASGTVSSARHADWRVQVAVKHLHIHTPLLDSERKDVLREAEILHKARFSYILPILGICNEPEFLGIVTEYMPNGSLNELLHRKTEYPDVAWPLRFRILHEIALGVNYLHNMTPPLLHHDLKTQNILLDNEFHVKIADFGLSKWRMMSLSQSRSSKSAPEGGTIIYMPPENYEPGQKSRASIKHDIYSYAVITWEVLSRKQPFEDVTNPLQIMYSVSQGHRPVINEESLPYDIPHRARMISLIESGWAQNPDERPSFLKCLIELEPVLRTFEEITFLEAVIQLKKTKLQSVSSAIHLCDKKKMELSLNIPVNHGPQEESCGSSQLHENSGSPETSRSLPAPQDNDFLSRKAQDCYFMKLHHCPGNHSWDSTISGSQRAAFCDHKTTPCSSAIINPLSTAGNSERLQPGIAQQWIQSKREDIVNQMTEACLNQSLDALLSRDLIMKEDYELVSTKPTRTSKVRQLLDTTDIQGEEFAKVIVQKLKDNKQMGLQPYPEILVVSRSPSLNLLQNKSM
Tyrosine-protein kinase Lyn (Homo sapiens), sequence (P07948 2-512 limits assumed): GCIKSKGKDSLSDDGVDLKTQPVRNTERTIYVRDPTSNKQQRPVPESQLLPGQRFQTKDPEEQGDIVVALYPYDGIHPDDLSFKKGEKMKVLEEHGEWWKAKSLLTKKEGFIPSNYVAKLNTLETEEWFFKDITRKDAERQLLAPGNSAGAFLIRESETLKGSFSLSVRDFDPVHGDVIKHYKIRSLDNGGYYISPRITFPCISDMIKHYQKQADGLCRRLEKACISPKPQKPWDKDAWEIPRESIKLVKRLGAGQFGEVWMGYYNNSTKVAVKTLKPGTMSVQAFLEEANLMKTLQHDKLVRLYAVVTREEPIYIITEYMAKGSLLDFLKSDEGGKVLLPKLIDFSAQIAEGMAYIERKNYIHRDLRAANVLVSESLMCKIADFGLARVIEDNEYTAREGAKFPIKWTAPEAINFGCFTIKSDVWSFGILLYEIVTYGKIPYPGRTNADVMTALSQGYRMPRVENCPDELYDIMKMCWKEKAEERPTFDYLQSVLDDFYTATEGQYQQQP

As for `C[C@H](Nc1ncnc2nc[nH]c12)c1cc2cccc(Cl)c2c(=O)n1-c1ccccc1`, the Activity in experiment [1] was found to be 92.2%; in experiment [2] it was 91.6%; in experiment [3], 80.7%; in experiment [4], 92.6%; in experiment [5], 102%; in experiment [6] it was 93.4%. For the same molecule, the Activity in experiment [7] was determined as 98.2%.
Turning to `CC[C@H](Nc1ncnc2[nH]cnc12)c1nc2cccc(F)c2c(=O)n1-c1ccccc1`, the Activity is 96.5% in experiment [1]; 100% in experiment [2]; 82.5% in experiment [3]; 93.8% in experiment [4]; 97.8% in experiment [5]; 90.6% in experiment [6]. Further, the Activity in experiment [7] was 99.5%.
In the case of `CC(C)Oc1ccc(-c2nn([C@@H](C)c3oc4ccc(F)cc4c(=O)c3-c3cccc(F)c3)c3ncnc(N)c23)cc1F` [UMBRALISIB], the Activity in experiment [1] was determined as 94.2%; in experiment [2] it was 101%; in experiment [3], 75.4%; in experiment [4], 96.6%; in experiment [5], 104%; in experiment [6], 95.5%. Besides, in experiment [7], the Activity was 99.5%.
